Where only a bound is given, the exact number is not on record here.

Type in all cases: biochemical
Test [1] addresses T1, c-Met (Homo sapiens, UniProt P08581).
T1 construct: Kinases are expressed as either kinase domains or full length constructs; made in house
Description: Kinase inhibition assay (33P transfer), c-Met. The settings on record: Table 2, kinase inhibition class; read-out: Met-1. The essentials: (§1)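 IC50: inhibitor concentration lowering 33P incorporation into immobilised substrate by 50%. Label transferred from ATP to poly(Glu,Tyr) 4:1 or poly(Arg,Ser) 3:1 is measured after a 0.5% phosphoric acid wash by liquid scintillation.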

Test [2] deals with T2, Zap-70 (Homo sapiens, UniProt P43403).
T2 construct: Kinases are expressed as either kinase domains or full length constructs; made in house
T2 sequence (P43403 1-619): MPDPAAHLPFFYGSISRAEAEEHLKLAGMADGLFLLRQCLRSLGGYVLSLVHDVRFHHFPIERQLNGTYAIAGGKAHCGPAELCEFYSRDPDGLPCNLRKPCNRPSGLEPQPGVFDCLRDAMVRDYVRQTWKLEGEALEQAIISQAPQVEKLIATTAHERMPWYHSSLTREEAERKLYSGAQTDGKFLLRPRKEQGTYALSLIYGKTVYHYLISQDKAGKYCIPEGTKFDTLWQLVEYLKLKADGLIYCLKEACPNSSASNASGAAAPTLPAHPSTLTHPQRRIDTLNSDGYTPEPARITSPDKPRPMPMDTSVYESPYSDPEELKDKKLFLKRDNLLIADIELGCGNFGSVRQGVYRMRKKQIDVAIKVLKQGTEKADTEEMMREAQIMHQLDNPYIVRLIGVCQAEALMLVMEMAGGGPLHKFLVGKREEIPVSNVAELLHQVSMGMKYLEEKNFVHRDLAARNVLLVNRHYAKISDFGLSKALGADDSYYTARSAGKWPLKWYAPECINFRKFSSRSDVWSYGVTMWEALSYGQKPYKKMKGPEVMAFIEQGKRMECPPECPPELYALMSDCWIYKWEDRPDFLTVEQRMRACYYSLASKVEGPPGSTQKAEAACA
Briefly: Kinase inhibition assay (33P transfer), Zap-70. The settings on record: read-out: Zap-1. The method, boiled down: (§2)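 Enzyme activity is taken as the amount of 33PO4 moved from ATP onto poly(Glu, Tyr) 4:1 or poly(Arg, Ser) 3:1 fixed to the plate surface. Unbound label is removed with 0.5% phosphoric acid before scintillation counting.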

Test [3] has as its target T3, Itk (Homo sapiens, UniProt Q08881).
T3 construct: Kinases are expressed as either kinase domains or full length constructs; made in house
T3 sequence (Q08881 1-620): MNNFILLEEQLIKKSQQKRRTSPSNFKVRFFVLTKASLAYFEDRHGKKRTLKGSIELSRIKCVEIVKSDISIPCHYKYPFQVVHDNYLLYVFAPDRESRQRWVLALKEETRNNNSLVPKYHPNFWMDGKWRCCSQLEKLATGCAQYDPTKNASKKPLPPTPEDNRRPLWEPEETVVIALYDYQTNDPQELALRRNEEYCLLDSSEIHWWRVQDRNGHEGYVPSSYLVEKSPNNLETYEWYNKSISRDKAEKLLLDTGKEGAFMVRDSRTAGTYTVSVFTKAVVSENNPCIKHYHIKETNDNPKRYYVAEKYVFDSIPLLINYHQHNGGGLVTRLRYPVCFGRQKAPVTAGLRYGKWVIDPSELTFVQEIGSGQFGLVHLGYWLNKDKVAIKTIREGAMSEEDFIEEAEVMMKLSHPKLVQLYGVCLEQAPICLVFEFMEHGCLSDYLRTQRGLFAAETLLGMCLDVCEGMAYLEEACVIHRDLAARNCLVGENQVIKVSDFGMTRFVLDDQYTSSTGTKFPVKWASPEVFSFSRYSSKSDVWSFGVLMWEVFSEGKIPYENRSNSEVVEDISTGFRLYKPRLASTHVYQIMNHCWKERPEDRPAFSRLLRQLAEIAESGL
Description: Kinase inhibition assay (33P transfer), Itk. The settings on record: read-out: Itk-1. The essentials: as §1

The target of test [4] is T4, AKT (Homo sapiens, UniProt Q9Y243).
T4 construct: Kinases are expressed as either kinase domains or full length constructs; made in house
Briefly: Kinase inhibition assay (33P transfer), AKT. To be noted: Table 2, kinase inhibition class; read-out: AKT3-1. The method, boiled down: as §2

The target in test [5] is T5, Tek (Homo sapiens, UniProt Q02763).
T5 construct: Kinases are expressed as either kinase domains or full length constructs; made in house
Briefly: Kinase inhibition assay (33P transfer), Tek. To be noted: read-out: Tek-1. The essentials: as §1

Test [6] deals with T6, Kdr (Homo sapiens, UniProt P35968).
T6 construct: Kinases are expressed as either kinase domains or full length constructs; made in house
Description: Kinase inhibition assay (33P transfer), Kdr. The settings on record: read-out: KDR-1. The essentials:
as §2

The target in test [7] is T7, EGFR (Homo sapiens, UniProt P00533).
T7 construct: Kinases are expressed as either kinase domains or full length constructs; made in house
Description: Kinase inhibition assay (33P transfer), EGFR. To be noted: Table 2, kinase inhibition class; read-out: EGFR-1. The method, boiled down:
as §1

Test [8] concerns the target T8, Lck (Homo sapiens, UniProt P06239).
T8 construct: Kinases are expressed as either kinase domains or full length constructs; made in house
Briefly: Kinase inhibition assay (33P transfer), Lck. The settings on record: read-out: Lck-1. The essentials: as §2

T7 sequence (P00533 25-1210, species assumed): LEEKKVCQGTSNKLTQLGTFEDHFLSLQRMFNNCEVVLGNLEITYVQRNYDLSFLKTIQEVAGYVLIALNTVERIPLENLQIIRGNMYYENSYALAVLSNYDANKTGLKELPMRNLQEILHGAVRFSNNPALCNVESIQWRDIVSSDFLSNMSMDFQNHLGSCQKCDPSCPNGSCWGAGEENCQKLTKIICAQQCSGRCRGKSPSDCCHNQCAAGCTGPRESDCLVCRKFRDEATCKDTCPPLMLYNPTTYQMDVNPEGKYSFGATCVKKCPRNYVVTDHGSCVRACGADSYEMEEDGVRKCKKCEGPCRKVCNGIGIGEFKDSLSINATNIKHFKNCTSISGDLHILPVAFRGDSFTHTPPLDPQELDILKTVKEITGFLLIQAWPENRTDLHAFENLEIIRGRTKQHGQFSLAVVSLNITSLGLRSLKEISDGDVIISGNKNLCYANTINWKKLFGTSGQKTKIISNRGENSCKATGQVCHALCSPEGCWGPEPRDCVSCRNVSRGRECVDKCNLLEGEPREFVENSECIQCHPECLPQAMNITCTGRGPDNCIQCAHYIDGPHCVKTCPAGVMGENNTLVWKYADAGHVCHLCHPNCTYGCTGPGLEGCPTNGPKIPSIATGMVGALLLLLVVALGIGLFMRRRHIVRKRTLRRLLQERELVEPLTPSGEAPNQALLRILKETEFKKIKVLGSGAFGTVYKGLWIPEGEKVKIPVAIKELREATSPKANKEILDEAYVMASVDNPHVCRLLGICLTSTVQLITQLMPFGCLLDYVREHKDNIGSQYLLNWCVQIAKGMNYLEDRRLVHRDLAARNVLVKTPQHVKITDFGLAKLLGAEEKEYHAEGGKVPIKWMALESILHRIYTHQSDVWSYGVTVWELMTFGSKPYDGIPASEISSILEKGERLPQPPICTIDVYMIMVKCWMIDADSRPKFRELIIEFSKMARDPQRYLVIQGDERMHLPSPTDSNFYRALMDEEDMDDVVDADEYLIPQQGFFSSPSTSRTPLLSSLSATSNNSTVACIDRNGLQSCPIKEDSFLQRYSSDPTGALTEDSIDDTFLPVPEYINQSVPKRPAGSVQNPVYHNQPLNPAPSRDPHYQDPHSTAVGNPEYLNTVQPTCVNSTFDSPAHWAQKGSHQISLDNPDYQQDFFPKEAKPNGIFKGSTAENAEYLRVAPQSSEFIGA
T5 sequence (Q02763 23-1124, species assumed): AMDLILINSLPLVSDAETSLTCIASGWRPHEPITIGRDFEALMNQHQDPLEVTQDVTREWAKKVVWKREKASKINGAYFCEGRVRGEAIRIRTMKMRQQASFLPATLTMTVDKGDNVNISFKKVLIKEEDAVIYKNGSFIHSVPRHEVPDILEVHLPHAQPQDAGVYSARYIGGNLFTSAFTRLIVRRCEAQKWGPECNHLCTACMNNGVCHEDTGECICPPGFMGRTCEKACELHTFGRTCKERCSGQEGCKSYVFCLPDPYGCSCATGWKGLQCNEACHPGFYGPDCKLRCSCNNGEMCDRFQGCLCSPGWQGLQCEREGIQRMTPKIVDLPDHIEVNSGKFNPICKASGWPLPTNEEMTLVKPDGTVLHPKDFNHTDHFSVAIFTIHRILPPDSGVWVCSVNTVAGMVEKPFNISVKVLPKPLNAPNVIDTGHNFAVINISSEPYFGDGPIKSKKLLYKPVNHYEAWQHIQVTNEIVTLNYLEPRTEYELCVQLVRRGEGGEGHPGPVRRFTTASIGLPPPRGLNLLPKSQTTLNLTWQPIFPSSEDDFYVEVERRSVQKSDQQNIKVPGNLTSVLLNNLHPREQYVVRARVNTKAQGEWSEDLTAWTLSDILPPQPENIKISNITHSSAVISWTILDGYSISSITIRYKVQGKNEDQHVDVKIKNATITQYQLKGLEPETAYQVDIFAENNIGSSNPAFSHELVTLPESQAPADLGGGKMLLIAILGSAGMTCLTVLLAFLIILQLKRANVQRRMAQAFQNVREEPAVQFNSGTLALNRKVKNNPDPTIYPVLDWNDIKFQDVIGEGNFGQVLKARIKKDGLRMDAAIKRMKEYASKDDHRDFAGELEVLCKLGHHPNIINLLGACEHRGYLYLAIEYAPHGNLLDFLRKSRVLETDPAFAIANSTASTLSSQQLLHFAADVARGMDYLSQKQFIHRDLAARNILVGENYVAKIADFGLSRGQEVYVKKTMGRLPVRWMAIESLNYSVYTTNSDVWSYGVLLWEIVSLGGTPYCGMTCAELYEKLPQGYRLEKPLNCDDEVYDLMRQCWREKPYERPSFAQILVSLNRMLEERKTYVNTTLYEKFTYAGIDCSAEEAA
T6 sequence (P35968 20-1356, species assumed): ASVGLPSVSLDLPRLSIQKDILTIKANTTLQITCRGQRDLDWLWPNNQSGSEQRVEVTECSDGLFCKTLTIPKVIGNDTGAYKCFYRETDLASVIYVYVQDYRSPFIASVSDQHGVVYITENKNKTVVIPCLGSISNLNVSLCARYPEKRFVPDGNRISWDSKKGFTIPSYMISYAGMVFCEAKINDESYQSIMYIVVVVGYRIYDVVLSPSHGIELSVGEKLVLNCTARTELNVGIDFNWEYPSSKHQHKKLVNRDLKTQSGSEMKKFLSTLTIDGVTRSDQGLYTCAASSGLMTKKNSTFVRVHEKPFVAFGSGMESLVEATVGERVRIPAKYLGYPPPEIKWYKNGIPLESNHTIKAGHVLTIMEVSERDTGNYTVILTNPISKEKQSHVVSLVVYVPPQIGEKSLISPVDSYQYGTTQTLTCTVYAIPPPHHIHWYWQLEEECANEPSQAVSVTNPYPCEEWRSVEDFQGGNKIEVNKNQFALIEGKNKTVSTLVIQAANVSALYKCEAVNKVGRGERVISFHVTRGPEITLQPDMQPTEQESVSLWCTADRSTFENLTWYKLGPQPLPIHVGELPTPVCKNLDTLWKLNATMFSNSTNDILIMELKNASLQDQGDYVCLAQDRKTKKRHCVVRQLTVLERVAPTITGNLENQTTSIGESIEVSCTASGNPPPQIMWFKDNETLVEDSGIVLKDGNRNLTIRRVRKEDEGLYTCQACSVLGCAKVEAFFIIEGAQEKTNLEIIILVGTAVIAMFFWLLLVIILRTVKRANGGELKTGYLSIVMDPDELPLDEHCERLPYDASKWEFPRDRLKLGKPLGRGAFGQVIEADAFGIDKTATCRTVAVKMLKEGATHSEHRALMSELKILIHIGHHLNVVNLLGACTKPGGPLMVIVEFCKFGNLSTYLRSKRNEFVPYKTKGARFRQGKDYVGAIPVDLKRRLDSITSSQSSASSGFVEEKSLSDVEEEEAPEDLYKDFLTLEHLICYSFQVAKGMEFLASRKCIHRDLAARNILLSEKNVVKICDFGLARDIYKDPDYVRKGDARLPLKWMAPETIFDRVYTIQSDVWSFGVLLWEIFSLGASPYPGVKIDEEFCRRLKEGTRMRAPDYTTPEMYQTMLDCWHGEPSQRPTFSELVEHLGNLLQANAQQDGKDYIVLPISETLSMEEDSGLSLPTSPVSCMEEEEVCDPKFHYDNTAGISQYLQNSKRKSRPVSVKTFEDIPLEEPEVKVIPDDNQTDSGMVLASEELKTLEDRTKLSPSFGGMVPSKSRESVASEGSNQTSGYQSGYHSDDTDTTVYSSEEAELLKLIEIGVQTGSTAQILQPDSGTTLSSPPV
T1 sequence (P08581 25-1390): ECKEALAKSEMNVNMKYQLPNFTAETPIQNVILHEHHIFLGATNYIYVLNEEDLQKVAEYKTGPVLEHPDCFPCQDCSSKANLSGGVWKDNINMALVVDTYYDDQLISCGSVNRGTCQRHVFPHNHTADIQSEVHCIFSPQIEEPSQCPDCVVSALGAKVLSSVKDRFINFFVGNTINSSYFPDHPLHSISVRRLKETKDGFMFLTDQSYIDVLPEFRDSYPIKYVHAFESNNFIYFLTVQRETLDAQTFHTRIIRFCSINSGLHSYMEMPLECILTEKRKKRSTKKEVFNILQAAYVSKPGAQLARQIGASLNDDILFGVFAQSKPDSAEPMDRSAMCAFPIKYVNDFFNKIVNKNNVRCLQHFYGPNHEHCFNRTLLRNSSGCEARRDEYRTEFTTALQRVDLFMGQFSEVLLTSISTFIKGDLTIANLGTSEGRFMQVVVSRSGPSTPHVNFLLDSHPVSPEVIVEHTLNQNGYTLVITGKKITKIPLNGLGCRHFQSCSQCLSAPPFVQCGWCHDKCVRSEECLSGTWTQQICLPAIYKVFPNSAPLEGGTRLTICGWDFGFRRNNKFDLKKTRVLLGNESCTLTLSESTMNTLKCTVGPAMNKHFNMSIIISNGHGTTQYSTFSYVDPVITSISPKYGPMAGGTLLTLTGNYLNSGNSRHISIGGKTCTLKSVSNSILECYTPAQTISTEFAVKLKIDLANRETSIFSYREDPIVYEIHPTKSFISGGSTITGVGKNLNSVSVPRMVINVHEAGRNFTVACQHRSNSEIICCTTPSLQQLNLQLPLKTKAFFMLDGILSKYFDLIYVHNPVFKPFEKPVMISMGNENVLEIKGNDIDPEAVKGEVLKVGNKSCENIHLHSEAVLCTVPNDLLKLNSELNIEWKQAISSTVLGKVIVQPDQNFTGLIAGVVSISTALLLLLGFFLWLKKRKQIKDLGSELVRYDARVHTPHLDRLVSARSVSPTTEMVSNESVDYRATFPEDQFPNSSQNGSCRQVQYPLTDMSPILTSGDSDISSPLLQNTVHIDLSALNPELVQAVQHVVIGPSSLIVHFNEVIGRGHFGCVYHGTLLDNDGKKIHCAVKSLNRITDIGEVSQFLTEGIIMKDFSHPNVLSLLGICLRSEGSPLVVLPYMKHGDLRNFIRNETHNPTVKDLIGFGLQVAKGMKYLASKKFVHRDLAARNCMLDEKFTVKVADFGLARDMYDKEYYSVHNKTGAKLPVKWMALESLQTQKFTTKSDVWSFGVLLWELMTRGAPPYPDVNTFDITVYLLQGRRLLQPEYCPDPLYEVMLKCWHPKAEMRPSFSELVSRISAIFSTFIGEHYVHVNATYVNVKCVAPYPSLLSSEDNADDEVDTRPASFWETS

Consider `CC(C)(C)c1ccc(Nc2ncnc(-n3c(N)nc4ccccc43)n2)cc1` [Compound 525], for which the IC50 was 9.74 to 12.5 µM in test [1]; more than 12.5 µM in test [2]; 6.68 to 9.74 µM in test [3]; more than 12.5 µM in test [4]; 6.68 to 9.74 µM in test [5]; 6.68 to 9.74 µM in test [6]. Also, the figures for the IC50 in test [7] and in test [8] were more than 12.5 µM and 6.68 to 9.74 µM, respectively.

In the case of `Nc1nc2ccccc2n1-c1ncnc(Nc2ccc3c(c2)OCO3)n1` [Compound 526], the IC50 in test [1] is 1.15 to 6.91 µM; in test [2], 1.15 to 6.91 µM; in test [3] it was 1.15 to 6.91 µM; in test [4], 6.91 to 10.1 µM; in test [5], 1.15 to 6.91 µM; in test [6], less than 1.15 µM. Further, the IC50 in test [7] and in test [8] was 1.15 to 6.91 µM each time.

With `Nc1nc2ccccc2n1-c1ncnc(Nc2ccc(Cl)c(Cl)c2)n1` [Compound 528], the IC50 in test [1], in test [2], in test [3], in test [4], in test [5] and in test [6] was 1.07 to 6.45 µM throughout. Besides, the IC50 in test [7] and in test [8] was 1.07 to 6.45 µM in each case.

As to `COc1cc(Nc2ncnc(-c3cccc4ccccc34)n2)cc(OC)c1OC` [Compound 611], the IC50 in test [1] is more than 11.6 µM; in test [2], more than 11.6 µM; in test [3] it was 9.01 to 11.6 µM; in test [4] it was more than 11.6 µM; in test [5] it was 6.18 to 9.01 µM; in test [6] it was 1.03 to 6.18 µM. For the same compound, the IC50 was more than 11.6 µM in test [7] and 1.03 to 6.18 µM in test [8].

With `Nc1ncnc(-n2c(N)nc3ccccc32)n1` [Compound 646], the IC50 in test [1] is more than 19.8 µM; in test [2] it was more than 19.8 µM; in test [3] it was 10.6 to 15.4 µM; in test [4] it was 1.76 to 10.6 µM; in test [5] it was more than 19.8 µM; in test [6], 1.76 to 10.6 µM. The IC50 in test [7] and in test [8] was more than 19.8 µM throughout.

On to `Nc1nc2ccccc2n1-c1ncnc(Nc2ccc(OC(F)(F)F)cc2)n1` [Compound 647], for which the IC50 in test [1] was more than 11.6 µM; in test [2] it was more than 11.6 µM; in test [3], more than 11.6 µM; in test [4], more than 11.6 µM; in test [5], more than 11.6 µM; in test [6] it was 1.03 to 6.2 µM. Moreover, the results for the IC50 in test [7] and in test [8] were 1.03 to 6.2 µM and more than 11.6 µM, respectively.

Consider `COc1ccc(Nc2ncnc(-n3c(N)nc4ccccc43)n2)cn1` [Compound 648], for which the IC50 in test [1] was more than 13.5 µM; in test [2] it was more than 13.5 µM; in test [3], more than 13.5 µM; in test [4] it was more than 13.5 µM; in test [5] it was more than 13.5 µM; in test [6], 1.2 to 7.18 µM. Further, the IC50 in test [7] and in test [8] was more than 13.5 µM in each case.

For `Nc1nc2ccccc2n1-c1ncnc(N2C(=O)c3ccccc3C2=O)n1` [Compound 653], the IC50 in test [1], in test [2], in test [3], in test [4], in test [5] and in test [6] was more than 12.6 µM throughout. Besides, the IC50 in test [7] and in test [8] was more than 12.6 µM each time.

`O=c1[nH]c2ccccc2n1-c1ncnc(Nc2nccc3ccccc23)n1` [Compound 689]: the IC50 in test [1] was 6.75 to 9.85 µM; in test [2], 1.13 to 6.75 µM; in test [3], more than 12.7 µM; in test [4] it was more than 12.7 µM; in test [5], 6.75 to 9.85 µM; in test [6], 6.75 to 9.85 µM. Besides, the IC50 in test [7] was 1.13 to 6.75 µM; in test [8], 6.75 to 9.85 µM.

Regarding `COc1cc(Nc2ncnc(-n3c(OCc4ccccn4)nc4ccccc43)n2)cc(OC)c1OC` [Compound 690], the IC50 in test [1] was more than 9.27 µM; in test [2], more than 9.27 µM; in test [3], more than 9.27 µM; in test [4], more than 9.27 µM; in test [5], more than 9.27 µM; in test [6] it was less than 0.824 µM. Besides, the IC50 in test [7] and in test [8] was more than 9.27 µM in each case.

Take `COc1cc(Nc2ncnc(Nc3ccc(NC(=O)O[C@@H]4CCOC4)cc3)n2)cc(OC)c1OC` [Compound 693]: the IC50 is 0.829 to 4.97 µM in test [1]; more than 9.33 µM in test [2]; 4.97 to 7.25 µM in test [3]; more than 9.33 µM in test [4]; more than 9.33 µM in test [5]; 0.829 to 4.97 µM in test [6]. The IC50 in test [7] and in test [8] was 0.829 to 4.97 µM throughout.

Regarding `COc1cc(Nc2ncnc(Nc3cccc(NC(=O)O[C@@H]4CCOC4)c3)n2)cc(OC)c1OC` [Compound 694], the IC50 is more than 9.33 µM in test [1]; more than 9.33 µM in test [2]; 4.97 to 7.25 µM in test [3]; more than 9.33 µM in test [4]; 7.25 to 9.33 µM in test [5]; 0.829 to 4.97 µM in test [6]. Also, the IC50 in test [7] and in test [8] was 0.829 to 4.97 µM in each case.

Consider `COc1cc(Nc2ncnc(Nc3cccc4ncccc34)n2)cc(OC)c1OC` [Compound 695], for which the IC50 in test [1] is more than 11.1 µM; in test [2], more than 11.1 µM; in test [3], 0.989 to 5.93 µM; in test [4] it was more than 11.1 µM; in test [5], 5.93 to 8.65 µM; in test [6], less than 0.989 µM. Moreover, the IC50 in test [7] is 5.93 to 8.65 µM; in test [8], less than 0.989 µM.

Turning to `COc1cc(Nc2ncnc(Nc3ncnc4[nH]cnc34)n2)cc(OC)c1OC` [Compound 696], the IC50 in test [1], in test [2], in test [3], in test [4], in test [5] and in test [6] was more than 11.4 µM throughout. Besides, the IC50 in test [7] and in test [8] was more than 11.4 µM throughout.

In the case of `COc1cc(Nc2ncnc(Nc3ccc(C(C)=O)cc3)n2)cc(OC)c1OC` [Compound 698], the IC50 in test [1] was more than 11.4 µM; in test [2] it was more than 11.4 µM; in test [3], 1.01 to 6.07 µM; in test [4], more than 11.4 µM; in test [5] it was 8.85 to 11.4 µM; in test [6], less than 1.01 µM. Moreover, the IC50 is 6.07 to 8.85 µM in test [7] and less than 1.01 µM in test [8].

As to `Nc1nc2ccccc2n1-c1ncnc(Nc2ccc(S(N)(=O)=O)cc2)n1` [Compound 923], the IC50 in test [1] was 1.05 to 6.28 µM; in test [2] it was more than 11.8 µM; in test [3], 1.05 to 6.28 µM; in test [4], more than 11.8 µM; in test [5], more than 11.8 µM; in test [6] it was less than 1.05 µM. For the same compound, the figures for the IC50 in test [7] and in test [8] were more than 11.8 µM and 9.15 to 11.8 µM, respectively.

For the compound `COc1cc(Nc2ncnc(-n3c(NCc4ccc(Br)cc4)nc4ccccc43)n2)cc(OC)c1OC` [Compound 940], the IC50 in test [1] is more than 8 µM; in test [2], more than 8 µM; in test [3] it was more than 8 µM; in test [4] it was more than 8 µM; in test [5], more than 8 µM; in test [6], less than 0.711 µM. Also, the values for the IC50 in test [7] and in test [8] were more than 8 µM and 6.22 to 8 µM, respectively.

Take `COc1cc(Nc2ncnc(-n3c(NCc4ncccc4C)nc4ccccc43)n2)cc(OC)c1OC` [Compound 941]: the IC50 in test [1], in test [2], in test [3], in test [4], in test [5] and in test [6] was more than 9.03 µM each time. Moreover, the IC50 in test [7] and in test [8] was more than 9.03 µM in each case.

The values above are taken from US7074789B2, “Kinase inhibitors” (Amgen Inc., priority 1999, dated 2006).
